Literature values in patent US9040513B2, “Process for preparing platinum-carbene complexes” (CENTRE NATIONAL DE LA RECHERCHE SCIENTIFIQUE, priority 2010, dated 2015).

Target: integrin αvβ3 (Homo sapiens, UniProt P05106+P06756)
Details: background statement

Chain of integrin αvβ3 (P06756 31-889 limits assumed): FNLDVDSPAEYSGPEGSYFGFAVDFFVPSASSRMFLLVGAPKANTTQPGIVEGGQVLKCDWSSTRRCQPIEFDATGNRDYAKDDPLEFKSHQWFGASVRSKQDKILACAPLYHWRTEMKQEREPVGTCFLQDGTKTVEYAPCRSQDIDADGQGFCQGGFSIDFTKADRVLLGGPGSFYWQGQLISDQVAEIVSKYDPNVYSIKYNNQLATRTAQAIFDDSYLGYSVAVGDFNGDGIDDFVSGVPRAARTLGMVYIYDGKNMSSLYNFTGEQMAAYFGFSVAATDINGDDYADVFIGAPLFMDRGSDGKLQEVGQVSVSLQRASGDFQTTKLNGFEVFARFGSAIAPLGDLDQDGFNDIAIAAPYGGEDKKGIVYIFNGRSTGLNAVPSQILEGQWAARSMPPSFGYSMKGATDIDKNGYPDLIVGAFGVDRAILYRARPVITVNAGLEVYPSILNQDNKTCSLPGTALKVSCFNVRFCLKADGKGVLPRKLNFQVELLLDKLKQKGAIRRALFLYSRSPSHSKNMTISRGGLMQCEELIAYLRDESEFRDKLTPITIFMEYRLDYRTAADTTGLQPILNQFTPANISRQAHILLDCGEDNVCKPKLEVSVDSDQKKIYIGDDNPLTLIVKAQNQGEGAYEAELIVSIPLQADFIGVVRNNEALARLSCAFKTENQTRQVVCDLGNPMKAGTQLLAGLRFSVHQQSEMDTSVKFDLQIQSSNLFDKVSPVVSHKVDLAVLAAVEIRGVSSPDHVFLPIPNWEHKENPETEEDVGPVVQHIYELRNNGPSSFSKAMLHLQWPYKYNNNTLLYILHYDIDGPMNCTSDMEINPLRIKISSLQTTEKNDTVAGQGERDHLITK
Chain of integrin αvβ3 (P06756 891-1048 partner limits assumed): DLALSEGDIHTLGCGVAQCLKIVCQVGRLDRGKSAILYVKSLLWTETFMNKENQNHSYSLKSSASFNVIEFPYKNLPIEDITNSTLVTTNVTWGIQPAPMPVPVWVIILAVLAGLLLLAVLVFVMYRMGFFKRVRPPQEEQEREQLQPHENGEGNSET
Chain of integrin αvβ3 (P05106 27-788): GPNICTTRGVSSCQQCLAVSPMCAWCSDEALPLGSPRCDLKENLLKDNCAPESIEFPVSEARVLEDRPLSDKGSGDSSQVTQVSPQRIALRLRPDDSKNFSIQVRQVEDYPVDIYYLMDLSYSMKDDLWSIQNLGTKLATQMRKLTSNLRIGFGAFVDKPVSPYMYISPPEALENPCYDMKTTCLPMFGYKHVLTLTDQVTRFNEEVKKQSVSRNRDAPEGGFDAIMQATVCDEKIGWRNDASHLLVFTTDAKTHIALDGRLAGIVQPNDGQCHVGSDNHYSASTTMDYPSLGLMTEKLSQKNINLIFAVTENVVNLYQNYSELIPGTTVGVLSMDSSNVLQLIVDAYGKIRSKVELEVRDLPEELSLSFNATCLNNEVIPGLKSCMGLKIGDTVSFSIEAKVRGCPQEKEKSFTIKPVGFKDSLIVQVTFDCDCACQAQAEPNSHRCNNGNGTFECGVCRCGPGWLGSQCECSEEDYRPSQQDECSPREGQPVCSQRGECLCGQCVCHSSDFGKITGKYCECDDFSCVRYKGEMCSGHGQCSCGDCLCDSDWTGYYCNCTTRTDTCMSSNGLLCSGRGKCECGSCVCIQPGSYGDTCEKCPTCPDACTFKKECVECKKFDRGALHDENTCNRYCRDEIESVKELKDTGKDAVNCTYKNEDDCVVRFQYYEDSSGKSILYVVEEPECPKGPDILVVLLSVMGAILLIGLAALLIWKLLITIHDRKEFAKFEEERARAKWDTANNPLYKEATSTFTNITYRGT

cyclo(RGDfK)
affinity for integrin αvβ3: high affinity
